Assay results reported in patent US9789101B2, “Methods and compositions for treating microbial infection using pyrroloquinone” (HELPERBY THERAPEUTICS LIMITED, priority 2010, dated 2017).
Where a name gives a salt, the structure may show the parent alone.

What was measured:
[1] = test system: log phase Staphylococcus aureus; assay: Chequerboard analysis of HT00800059 with HT230 or HT281 against log phase Staphylococcus aureus; type: cell-based, Staphylococcus aureus (Oxford)
Method: (§1) Staphylococcus aureus (Oxford); Gram positive; Reference strain.
Log phase growth of methicilin sensitive Staphylococcus aureus (MSSA) was carried out as follows: • Bacteria were grown in 10 ml of nutrient broth (No. 2, (Oxoid)) overnight at 37° C. with continuous shaking at 120 rpm. The overnight cultures were diluted 1000× with iso-sensitest broth. The cultures were incubated at 37° C. with shaking for 1-2 hours to reach log CFU 6. Viability of the bacteria was estimated by colony forming unit (CFU) counts. From serial 10-fold dilutions of the experimental cultures, 100 μl samples were added to triplicate plates of nutrient agar plates (Oxoid) or blood agar plates (Oxoid). CFUs were counted after incubation of the plates at 37° C. for 24 hours.
Bacterial cultures: 10 μl of overnight cultures was added to 10 ml of fresh iso-sensitest broth to make the inoculation to 10^6 CFU/ml. 290 μl of the cell suspension was added to each well of the 96 well plate, which was incubated at 37° C. for 24 hours. 300 μl of iso-sensitest broth without bacterial cells were added to wells of the plate as a no bacterial control.
MIC determination: The optical density of the bacterial cells was read at 405 nm using a plate reader (Bio TEK). The MIC concentration was determined as the lowest concentration of drug which inhibits the bacterial growth.
HT230 was dissolved in DMSO to the stock concentration of 10 mg/ml.
HT281 was dissolved in DMSO to the stock concentration of 10 mg/ml.
HT00800059 was dissolved in H2O to the stock solution 30.07 mg/ml.
HT230 or HT281 (10 mg/ml) was firstly diluted to 0.96 mg/ml, then a serial of 2 fold dilution was carried out.
This was followed by the addition of 280 μl of log phase culture at 10^6 CFU/ml to make the final concentrations of each drug as shown.
In the above table, values in bold text are for HT00800059. Values in plain text are for HT230 or HT281. The numbers shown in each well are μg/ml.
Incubation of the compounds with the bacterial suspension was carried out for 24 hours. The kill effects of the drug combination were measured by optical density reading at 405 nm with a plate reader (Bio TEK).
The fractional inhibitory concentration (FIC) index was carried out as follows: (MIC of drug A, tested in combination)/(MIC of drug A, tested alone)+(MIC of drug B, tested in combination)/(MIC of drug B, tested alone). The interaction was defined as synergistic if the FIC index was <1, additive if the FIC index was =1 and antagonistic if the FIC index was >1.

[2] = test system: stationary phase Staphylococcus aureus; assay: In vitro efficacy test against stationary phase Staphylococcus aureus (CFU counts); type: cell-based, Staphylococcus aureus (Oxford)
Method: as §1
Stationary phase growth of methicilin sensitive Staphylococcus aureus (MSSA) was carried out as follows:
Subculture of the bacterial strains on agar plates: Overnight S. aureus bacterial cultures were stored at −70° C. with 20% glycerol (cryoprotectant). A loopful of the frozen cells was streaked on a blood agar plate which was incubated at 37° C. overnight (or longer) as culture plate A. A single colony of each strain from the culture plate A was streaked on the blood agar plate which was incubated at 37° C. overnight (or longer) as culture plate B. The culture plate B was stored at 4° C. for a week and served as the initial inoculation plate.
Bacterial growth in broth culture: A single colony from culture plate B was inoculated in 10 ml of nutrient broth (No. 2, (Oxoid)), which was incubated overnight at 37° C. with continuous shaking at 120 rpm. 200 μl of the overnight culture was added into a 500 ml bottle containing 100 ml of nutrient broth. The 100 ml culture was incubated at 37° C. with continuous shaking for 6 to 7 days. Viability of the cultures is estimated by colony forming unit (CFU) counts at 2 hour intervals for the first 24 hours and 12 to 24 hours afterwards.
Colony Forming Unit (CFU) counts were performed as follows: From serial 10-fold dilutions of the cultures, 100 μl samples were added to one third of blood agar plates (Oxoid) in triplicate. CFUs were counted using an aCoLyte colony counter (Synbiosis) after incubation of the plates at 37° C. for 24 hours or longer.
7 day old stationary phase cultures were used. The stationary phase cultures were diluted to obtain CFU counts in the cell suspension of 10^6 to 10^7 CFU/ml. The cell suspension was used to test drug sensitivity.
HT61 was dissolved in DMSO to the stock concentration of 10 mg/ml.
HT00800059 was dissolved in H2O to the stock solution 10 mg/ml
The drugs were first diluted as follows: • 7.2 μl of HT61 at 10 mg/ml was added into 292.8 μl of H2O followed by diluting 2 fold, 3 times. • 57.6 μl of HT00800059 at 10 mg/ml was added into 242.4 μl of H2O followed by diluting 2 fold, 2 times. • 10 μl of HT00800059 from each dilution was added into the wells of a 96 well plate followed by the addition of 290 μl of bacterial cell suspension to make the final concentrations of HT00800059 at 64, 32 and 0 μg/ml. • […]
In combination of two drugs: 10 μl of HT61 from each dilution was added into the wells of a 96 well plate followed by the addition of 10 μl of HT00800059 from each dilution. […]

[3] = test system: log phase (i.e. multiplying) bacteria; details: J. Am. Pharm. Assoc. 1956; cited from earlier work
[4] = test system: clinically latent microorganisms; assay: Screening for ability to kill clinically latent microorganisms (method of WO2000028074); type: cell-based; details: observed by the Applicant
Source text: International Patent Application, Publication Number WO2000028074 describes a method of screening compounds to determine their ability to kill clinically latent microorganisms. […] This observation has necessitated the development of novel antimicrobials which may be used to kill clinically latent microorganisms.
By way of example, WO2000028074 describes a suitable method of screening compounds to determine their ability to kill clinically latent microorganisms. A typical method may include the following steps: • (1) growing a bacterial culture to stationery phase; • (2) treating the stationery phase culture with one or more antimicrobial agents at a concentration and or time sufficient to kill growing bacteria, thereby selecting a phenotypically resistant sub-population; • (3) incubating a sample of the phenotypically resistant subpopulation with one or more test compounds or agents; and • (4) assessing any antimicrobial effects against the phenotypically resistant subpopulation.

Row | Structure (SMILES) | MIC after combination ([1]; HT230/HT00800059 chequerboard) | MIC before combination ([1]; HT230/HT00800059 chequerboard) | MIC after combination ([1]; HT281/HT00800059 chequerboard) | MIC before combination ([1]; HT281/HT00800059 chequerboard) | MIC ([1]; Staphylococcus aureus, read-out: alone MIC) | HT00800059 MIC in combination ([1]; with HT230 at 2 μg/ml) | HT00800059 MIC in combination ([1]; with HT281 at 4 μg/ml) | CFU killed ([2]; 32 μg/ml, over 8 hours) | CFU killed ([2]; 64 μg/ml, over 6 hours) | activity in vitro against a variety of log phase bacteria [3] | activity against clinically latent microorganisms [4]
1 | CCCCOc1ccc(C(=O)CCN2CCCCC2)cc1 [HT00800059, dyclonine (1-(4-Butoxyphenyl)-3-(1-piperidinyl)-1-propanone) hydrochloride] | 64 µg/mL | 512 µg/mL | 128 µg/mL | 512 µg/mL | 512 µg/mL | 64 µg/mL | 128 µg/mL | about 10^4 CFU | about 10^7 CFU | activity | –
2 | C/C(=C\C(=O)OCCCCCCCCC(=O)O)C[C@@H]1OC[C@H](C[C@@H]2O[C@H]2[C@@H](C)[C@H](C)O)[C@@H](O)[C@H]1O [Mupirocin] | – | – | – | – | – | – | – | – | – | – | little or no activity
